Reference: patent US9856242B2, “5-fluoro-N-(pyridin-2-yl)pyridin-2-amine derivatives containing a sulfone group” (Bayer Pharma Aktiengesellschaft, priority 2014, dated 2018)

Tests used:
HeLa-MaTu-ADR cells = assay: Proliferation assay (Method 3), HeLa-MaTu-ADR; type: cell-based; conditions: 96 h; multidrug-resistant human cervical carcinoma, 4 days, crystal violet; read-out: Inhibition of HeLa-MaTu-ADR cell proliferation IC50
Method: (§1) Cultivated tumour cells (HeLa, human cervical tumour cells, ATCC CCL-2; NCI-H460, human non-small cell lung carcinoma cells, ATCC HTB-177; A2780, human ovarian carcinoma cells, ECACC #93112519; DU 145, hormone-independent human prostate carcinoma cells, ATCC HTB-81; HeLa-MaTu-ADR, multidrug-resistant human cervical carcinoma cells, EPO-GmbH Berlin; Caco-2, human colorectal carcinoma cells, ATCC HTB-37; B16F10, mouse melanoma cells, ATCC CRL-6475) were plated at a density of 5,000 cells/well (DU145, HeLa-MaTu-ADR), 3,000 cells/well (NCI-H460, HeLa), 2,500 cells/well (A2780), 1,500 cells/well (Caco-2), or 1,000 cells/well (B16F10) in a 96-well multititer plate in 200 μL of their respective growth medium supplemented 10% fetal calf serum. After 24 hours, the cells of one plate (zero-point plate) were stained with crystal violet (see below), while the medium of the other plates was replaced by fresh culture medium (200 μl), to which the test substances were added in various concentrations (0 μM, as well as in the range of 0.001-10 μM; the final concentration of the solvent dimethyl sulfoxide was 0.5%). The cells were incubated for 4 days in the presence of test substances. Cell proliferation was determined by staining the cells with crystal violet: the cells were fixed by adding 20 μl/measuring point of an 11% glutaric aldehyde solution for 15 minutes at room temperature. After three washing cycles of the fixed cells with water, the plates were dried at room temperature. The cells were stained by adding 100 μl/measuring point of a 0.1% crystal violet solution (pH 3.0). After three washing cycles of the stained cells with water, the plates were dried at room temperature. The dye was dissolved by adding 100 μl/measuring point of a 10% acetic acid solution. The extinction was determined by photometry at a wavelength of 595 nm. The change of cell number, in percent, was calculated by normalization of the measured values to the extinction values of the zero-point plate (=0%) and the extinction of the untreated (0 μm) cells (=100%). The IC50 values (inhibitory concentration at 50% of maximal effect) were determined by means of a 4 parameter fit.

A2780 cells = assay: Proliferation assay (Method 3), A2780; type: cell-based; conditions: A2780, 96 h; human ovarian carcinoma, 4 days, crystal violet; read-out: Inhibition of A2780 cell proliferation IC50
Method: Cultivated tumour cells (HeLa, human cervical tumour cells, ATCC CCL-2; NCI-H460, human non-small cell lung carcinoma cells, ATCC HTB-177; A2780, human ovarian carcinoma cells, ECACC #93112519; DU 145, hormone-independent human prostate carcinoma cells, ATCC HTB-81; HeLa-MaTu-ADR, multidrug-resistant human cervical carcinoma cells, EPO-GmbH Berlin; Caco-2, human colorectal carcinoma cells, ATCC HTB-37; B16F10, mouse melanoma cells, ATCC CRL-6475) were plated at a density of 5,000 cells/well (DU145, HeLa-MaTu-ADR), 3,000 cells/well (NCI-H460, HeLa), 2,500 cells/well (A2780), 1,500 cells/well (Caco-2), or 1,000 cells/well (B16F10) in a 96-well multititer plate in 200 μL of their respective growth medium supplemented 10% fetal calf serum. […] Cell proliferation was determined by staining the cells with crystal violet: the cells were fixed by adding 20 μl/measuring point of an 11% glutaric aldehyde solution for 15 minutes at room temperature. […] The extinction was determined by photometry at a wavelength of 595 nm. The change of cell number, in percent, was calculated by normalization of the measured values to the extinction values of the zero-point plate (=0%) and the extinction of the untreated (0 μm) cells (=100%). […]

CDK2/CycE = target: T1, CDK2/CycE (Homo sapiens, UniProt P24941); assay: CDK2/CycE high ATP kinase assay (Method 2b, TR-FRET, 2 mM ATP); type: biochemical
T1 construct: GST; purchased ProQinase GmbH (Freiburg, Germany); host or cells: insect cells (Sf9)
Method: 2b. CDK2/CycE High ATP Kinase Assay
CDK2/CycE-inhibitory activity of compounds of the present invention at 2 mM adenosine-tri-phosphate (ATP) was quantified employing the CDK2/CycE TR-FRET (TR-FRET=Time Resolved Fluorescence Energy Transfer) assay as described in the following paragraphs.
Recombinant fusion proteins of GST and human CDK2 and of GST and human CycE, expressed in insect cells (Sf9) and purified by Glutathion-Sepharose affinity chromatography, were purchase from ProQinase GmbH (Freiburg, Germany). As substrate for the kinase reaction biotinylated peptide biotin-Ttds-YISPLKSPYKISEG (C-terminus in amid form) was used which can be purchased e.g. form the company JERINI peptide technologies (Berlin, Germany). […]
The resulting mixture was incubated 1 h at 22° C. to allow the formation of complex between the phosphorylated biotinylated peptide and the detection reagents. Subsequently the amount of phosphorylated substrate was evaluated by measurement of the resonance energy transfer from the Eu-chelate to the streptavidine-XL. Therefore, the fluorescence emissions at 620 nm and 665 nm after excitation at 350 nm wer measured in a TR-FRET reader, e.g. a Rubystar (BMG Labtechnologies, Offenburg, Germany) or a Viewlux (Perkin-Elmer). […]

DU145 cells = assay: Proliferation assay (Method 3), DU145; type: cell-based; conditions: DU-145, 96 h; hormone-independent human prostate carcinoma, 4 days, crystal violet; read-out: Inhibition of DU145 cell proliferation IC50
Method: as §1

`CS(=O)(=O)Cc1cc(F)nc(Nc2cc(-c3ccc(F)c4ccoc34)c(F)cn2)c1` [Example 2, 5-Fluoro-4-(4-fluoro-1-benzofuran-7-yl)-N-{6-fluoro-4-[(methylsulfonyl)methyl]pyridin-2-yl}pyridin-2-amine] was tested. Which IC50 (HeLa-MaTu-ADR cells) did it give?
The IC50 was 24 nM.

And the IC50 (A2780 cells)?
The IC50 was 24 nM.

What about the IC50 (CDK2/CycE) of the same compound?
The IC50 was 517 nM.

And the IC50 (DU145 cells)?
The IC50 was 36 nM.

`Cc1cc(CS(C)(=O)=O)cc(Nc2cc(-c3ccc(F)c4ccoc34)c(F)cn2)n1` [Example 3, 5-Fluoro-4-(4-fluoro-1-benzofuran-7-yl)-N-{6-methyl-4-[(methylsulfonyl)methyl]pyridin-2-yl}pyridin-2-amine] was tested. Which IC50 (HeLa-MaTu-ADR cells) did it give?
Its IC50 is 18 nM.

And the IC50 (DU145 cells)?
Its IC50 is 24 nM.

For `CS(=O)(=O)Cc1cc(Nc2cc(-c3ccc(F)c4ccoc34)c(F)cn2)nc(C(F)(F)F)c1` [Example 4, 5-Fluoro-4-(4-fluoro-1-benzofuran-7-yl)-N-{4-[(methylsulfonyl)methyl]-6-(trifluoromethyl)pyridin-2-yl}pyridin-2-amine], which IC50 (HeLa-MaTu-ADR cells) is on record?
Its IC50 is 23 nM.

What about the IC50 (DU145 cells) of the same compound?
Its IC50 is 30 nM.

With `CS(=O)(=O)Cc1ccnc(Nc2cc(-c3ccc(F)c4ccoc34)c(F)cn2)c1` [Example 1, 5-Fluoro-4-(4-fluoro-1-benzofuran-7-yl)-N-{4-[(methylsulfonyl)methyl]pyridin-2-yl}pyridin-2-amine] as the compound, how does the IC50 (HeLa-MaTu-ADR cells) read?
The IC50 was 36 nM.

And the IC50 (CDK2/CycE)?
The IC50 was 535 nM.

And the IC50 (DU145 cells)?
The IC50 was 34 nM.

Which results are given for `CS(=O)(=O)Cc1ccnc(Nc2cc(-c3cccc4ccoc34)c(F)cn2)c1` [Example 5, 4-(1-Benzofuran-7-yl)-5-fluoro-N-{4-[(methylsulfonyl)methyl]pyridin-2-yl}pyridin-2-amine]?
IC50 (HeLa-MaTu-ADR cells): 68 nM; IC50 (DU145 cells): 58 nM
